# Reference: patent US20210032257A1, “(E)-1-(4-(DIMETHYLAMINO)BUT-2-ENOYL)PYRROLIDIN-3-YL 4-((3-ISOPROPYL-5-METHYLPYRAZOLO[1,5-A]PYRIMIDIN-7-YL)AMINO)PIPERIDINE-1-CARBOXYLATE FOR INHIBITING CDK7” (Eli Lilly and Company, priority 2017, published 2021)
# pIC50: −log10 of the molar value.
# What was measured:
# Test in all cases: Biomarker study proliferation (CellTiter-Glo)
# Assay type in all cases: cell-based
# KPL1 = system: KPL1
# Outline: (§1)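 Seeding density 5000 cells/well; overnight recovery; compound 10-pt, 1:3; 7 d, 37 °C, 5% CO2; CellTiter-Glo, 15 min RT; luminescence. Ctrl: staurosporine 5 μM final.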
# OZ = system: OZ
# Outline: as §1
# KYSE150 = system: KYSE150
# Outline: as §1
# CORL88 = system: CORL88
# Outline: as §1
# UMUC3 = system: UMUC3
# Outline: as §1
# NCIH460 = system: NCIH460
# Outline: as §1
# NIHOVCAR3 = system: NIHOVCAR3
# Outline: as §1
# NUGC3 = system: NUGC3
# Outline: as §1
# HCT116 = system: HCT116
# Outline: as §1
# CT26 = system: CT26
# Outline: as §1
# NCIH2196 = system: NCIH2196
# Outline: as §1
# C33A = system: C33A
# Outline: as §1
# SNU387 = system: SNU387
# Outline: as §1
# EBC1 = system: EBC1
# Outline: as §1
# SNU739 = system: SNU739
# Outline: as §1
# NCIH526 = system: NCIH526
# Outline: as §1
# SKHEP1 = system: SKHEP1
# Outline: as §1
# TYKNU = system: TYKNU
# Outline: as §1
# A2780 = system: A2780
# Outline: as §1
# [1] = 168 h, read-out: Anti-proliferation effect IC50
smiles,measurement,setting,value
"Cc1cc(NC2CCN(C(=O)O[C@H]3CCN(C(=O)/C=C/CN(C)C)C3)CC2)n2ncc(C(C)C)c2n1 [Example 1, [(3S)-1-[(E)-4-(dimethylamino)but-2-enoyl]pyrrolidin-3-yl] 4-[(3-isopropyl-5-methyl-pyrazolo[1,5-a]pyrimidin-7-yl)amino]piperidine-1-carboxylate]",Anti-proliferation effect % Inh.,"KPL1; KPL1, BREAST, 7 days",43%
same,Anti-proliferation effect Outcome,"KPL1; KPL1, BREAST, 7 days",Cytostatic (cytostatic (IC50<1 μM and % inhibition <70%))
same,pIC50,"KPL1; KPL-1, 168 h, read-out: Anti-proliferation effect IC50",6.18
same,pIC50,OZ; [1],7.30
same,Anti-proliferation effect % Inh.,"OZ; OZ, LIVER, 7 days",77%
same,Anti-proliferation effect Outcome,"OZ; OZ, LIVER, 7 days",Cytotoxic (cytotoxic (IC50<1 μM and % inhibition ≥70%))
same,pIC50,"KYSE150; Homo sapiens, KYSE-150, 168 h, read-out: Anti-proliferation effect IC50",7.38
same,Anti-proliferation effect % Inh.,"KYSE150; KYSE150, OESOPHAGUS, 7 days",64%
same,Anti-proliferation effect Outcome,"KYSE150; KYSE150, OESOPHAGUS, 7 days",Cytostatic (cytostatic (IC50<1 μM and % inhibition <70%))
same,Anti-proliferation effect % Inh.,"CORL88; CORL88, LUNG, 7 days",34%
same,Anti-proliferation effect Outcome,"CORL88; CORL88, LUNG, 7 days",Insensitive (insensitive (IC50≥1 μM))
same,pIC50,"CORL88; Homo sapiens, COR-L88, 168 h, read-out: Anti-proliferation effect IC50",5.38
same,pIC50,"UMUC3; Homo sapiens, UMUC3, 168 h, read-out: Anti-proliferation effect IC50",6.79
same,Anti-proliferation effect % Inh.,"UMUC3; UMUC3, URINARY, 7 days",70%
same,Anti-proliferation effect Outcome,"UMUC3; UMUC3, URINARY, 7 days",Cytotoxic (cytotoxic (IC50<1 μM and % inhibition ≥70%))
same,pIC50,"NCIH460; Homo sapiens, NCI-H460, 168 h, read-out: Anti-proliferation effect IC50",7.33
same,Anti-proliferation effect % Inh.,"NCIH460; NCIH460, LUNG, 7 days",97%
same,Anti-proliferation effect Outcome,"NCIH460; NCIH460, LUNG, 7 days",Cytotoxic (cytotoxic (IC50<1 μM and % inhibition ≥70%))
same,pIC50,"NIHOVCAR3; Homo sapiens, OVCAR-3, 168 h, read-out: Anti-proliferation effect IC50",7.40
same,Anti-proliferation effect % Inh.,"NIHOVCAR3; NIHOVCAR3, OVARY, 7 days",96%
same,Anti-proliferation effect Outcome,"NIHOVCAR3; NIHOVCAR3, OVARY, 7 days",Cytotoxic (cytotoxic (IC50<1 μM and % inhibition ≥70%))
same,pIC50,"NUGC3; Homo sapiens, NUGC-3, 168 h, read-out: Anti-proliferation effect IC50",7.52
same,Anti-proliferation effect % Inh.,"NUGC3; NUGC3, STOMACH, 7 days",81%
same,Anti-proliferation effect Outcome,"NUGC3; NUGC3, STOMACH, 7 days",Cytotoxic (cytotoxic (IC50<1 μM and % inhibition ≥70%))
same,Anti-proliferation effect % Inh.,"HCT116; HCT116, INTESTINE, 7 days",88%
same,Anti-proliferation effect Outcome,"HCT116; HCT116, INTESTINE, 7 days",Cytotoxic (cytotoxic (IC50<1 μM and % inhibition ≥70%))
same,pIC50,"HCT116; Homo sapiens, HCT-116, 168 h, read-out: Anti-proliferation effect IC50",7.39
same,Anti-proliferation effect % Inh.,"CT26; CT26, INTESTINE, 7 days",−47%
same,Anti-proliferation effect Outcome,"CT26; CT26, INTESTINE, 7 days",Insensitive (insensitive (IC50≥1 μM))
same,pIC50,"CT26; Mus musculus, CT26, 168 h, read-out: Anti-proliferation effect IC50",< 5.00
same,pIC50,"NCIH2196; Homo sapiens, NCI-H2196, 168 h, read-out: Anti-proliferation effect IC50",6.91
same,Anti-proliferation effect % Inh.,"NCIH2196; NCIH2196, LUNG, 7 days",63%
same,Anti-proliferation effect Outcome,"NCIH2196; NCIH2196, LUNG, 7 days",Cytostatic (cytostatic (IC50<1 μM and % inhibition <70%))
same,Anti-proliferation effect % Inh.,"C33A; C33A, CERVIX, 7 days",79%
same,Anti-proliferation effect Outcome,"C33A; C33A, ENDOMETRIUM, 7 days",Cytotoxic (cytotoxic (IC50<1 μM and % inhibition ≥70%))
same,pIC50,"C33A; Homo sapiens, C-33-A, 168 h, read-out: Anti-proliferation effect IC50",7.85
same,pIC50,"SNU387; Homo sapiens, SNU-387, 168 h, read-out: Anti-proliferation effect IC50",< 5.00
same,Anti-proliferation effect % Inh.,"SNU387; SNU387, LIVER, 7 days",12%
same,Anti-proliferation effect Outcome,"SNU387; SNU387, LIVER, 7 days",Insensitive (insensitive (IC50≥1 μM))
same,Anti-proliferation effect % Inh.,"EBC1; EBC1, LUNG, 7 days",83%
same,Anti-proliferation effect Outcome,"EBC1; EBC1, LUNG, 7 days",Cytotoxic (cytotoxic (IC50<1 μM and % inhibition ≥70%))
same,pIC50,"EBC1; Homo sapiens, EBC-1, 168 h, read-out: Anti-proliferation effect IC50",7.33
same,Anti-proliferation effect % Inh.,"SNU739; SNU739, LIVER, 7 days",47%
same,Anti-proliferation effect Outcome,"SNU739; SNU739, LIVER, 7 days",Insensitive (insensitive (IC50≥1 μM))
same,pIC50,"SNU739; SNU-739, 168 h, read-out: Anti-proliferation effect IC50",< 5.00
same,pIC50,"NCIH526; Homo sapiens, NCI-H526, 168 h, read-out: Anti-proliferation effect IC50",7.74
same,Anti-proliferation effect % Inh.,"NCIH526; NCIH526, LUNG, 7 days",94%
same,Anti-proliferation effect Outcome,"NCIH526; NCIH526, LUNG, 7 days",Cytotoxic (cytotoxic (IC50<1 μM and % inhibition ≥70%))
same,pIC50,"SKHEP1; Homo sapiens, SK-HEP1, 168 h, read-out: Anti-proliferation effect IC50",6.93
same,Anti-proliferation effect % Inh.,"SKHEP1; SKHEP1, LIVER, 7 days",71%
same,Anti-proliferation effect Outcome,"SKHEP1; SKHEP1, LIVER, 7 days",Cytotoxic (cytotoxic (IC50<1 μM and % inhibition ≥70%))
same,pIC50,TYKNU; [1],7.14
same,Anti-proliferation effect % Inh.,"TYKNU; TYKNU, OVARY, 7 days",83%
same,Anti-proliferation effect Outcome,"TYKNU; TYKNU, OVARY, 7 days",Cytotoxic (cytotoxic (IC50<1 μM and % inhibition ≥70%))
same,Anti-proliferation effect % Inh.,"A2780; A2780, OVARY, 7 days",74%
same,Anti-proliferation effect Outcome,"A2780; A2780, OVARY, 7 days",Cytotoxic (cytotoxic (IC50<1 μM and % inhibition ≥70%))
same,pIC50,"A2780; Homo sapiens, A2780, 168 h, read-out: Anti-proliferation effect IC50",7.28
